Measurements taken from patent US12668599B2, “Heterobifunctional compounds and methods of treating disease” (Halda Therapeutics OpCo, Inc., priority 2023, dated 2026).

Columns and labels:
T47D cells = assay: Cellular growth inhibition assay for T47D cells (CellTiter-Glo 2.0, 72 hours); type: cell-based, human; conditions: Homo sapiens, T47D, 72 h
Method: Exemplary compounds were tested for ability to inhibit the proliferation of T47D cells. T47D cells are a commercially available human breast cancer cell line.
T47D cells were purchased from American Type Cell Culture (ATCC Cat #HTB-133) and then seeded on poly-D-lysine coated, black clear-bottom 384-well plates at 3000/well in 25 μL Dulbecco's Modified Eagle Medium (DMEM) supplemented with 10% w/w Fetal bovine serum (FBS), 0.2 units/mL recombinant human insulin (Gibco Cat #12585014), and 1% w/w Pen-Strep. Pen-Strep is a commercially available mixture of penicillin G and streptomycin, which is used in mammalian cell culture media to prevent bacterial contamination. Dulbecco's Modified Eagle Medium (DMEM) supplemented with 10% w/w fetal bovine serum (FBS), 0.2 units/mL recombinant human insulin, and 1% w/w Pen-Strep is herein referred to as Treatment Medium. Following seeding of cells in the plates, the plates were spun at 300×g for 30 seconds, then equilibrated to room temperature for 30 minutes, and then deposited in a humidified tissue culture incubator maintained at 37° C. with 5% CO2.
At 24 hours after seeding of the cells, dilutions of test compound were prepared in DMSO and dissolved in Treatment Medium, to achieve a final DMSO concentration of 0.5% w/w, thereby providing the Test Compound Solution. A 25 μL aliquot of the Test Compound Solution was added to cells in the well plates. An equal volume of a solution containing DMSO and Treatment Medium was used as a negative control. Following treatment of cells with Test Compound Solution or said equal volume of a solution containing DMSO and Treatment Medium, the plates were spun at 300×g for 30 seconds, and then left in an incubator for 72 hours.
At the end of the treatment duration, cell viability was quantified with CellTiter-Glo 2.0 reagent (Promega Cat #G9243). For this purpose, plates were equilibrated to room temperature for 30 minutes, and then 25 μL of CellTiter-Glo 2.0 reagent was added to cells in the plate wells. Plates were then agitated on a shaker for two minutes at 500 rpm and subsequently incubated at room temperature for 10 minutes. Following incubation, the plates were spun at 3000×g for 30 seconds, then sealed with an optical adhesive cover, and luminescence readings were measured with an En Vision Plate Reader (Perkin Elmer).
Data was normalized using zero luminescence for baseline. A four-parameter non-linear regression curve fit was applied to dose-response data in GraphPad Prism data analysis software to determine the half-maximal growth inhibitory concentration (GI50) for each test compound.

[1] = test system: T-Rex 293 cell line SC3 cells lacking increased expression of androgen receptor protein; assay: Cellular growth inhibition, T-Rex 293 SC3 cells without doxycycline (CellTiter-Glo 2.0, 72 hours); type: cell-based; conditions: 72 h, T-Rex 293 SC3 cells not exposed to doxycycline (no increased androgen receptor expression)
VCaP cells = assay: Cellular growth inhibition assay for VCaP cells (CellTiter-Glo 2.0, 72 hours); type: cell-based, human

Structure (SMILES): COc1cc(O[C@H]2C(C)(C)[C@H](NC(=O)c3cnc(N4CCC5(CC4)CC(Oc4ccc(C6=N[C@@H](Cc7ncco7)c7nnc(C)n7-c7sc(C)c(C)c76)cc4)C5)nc3)C2(C)C)ccc1C#N [II-5, N-[(1r,3r)-3-(4-cyano-3-methoxy-phenoxy)-2,2,4,4-tetramethyl-cyclobutyl]-2-[2-[4-[(9S)-4,5,13-trimethyl-9-(oxazol-2-ylmethyl)-3-thia-1,8,11,12-tetrazatricyclo[8.3.0.0^2,6]trideca-2 (6),4,7,10,12-pentaen-7-yl]phenoxy]-7-azaspiro[3.5]nonan-7-yl]pyrimidine-5-carboxamide]
- GI50 (T47D cells): < 500 nM
- GI50 [1]: < 500 nM
- Ratio of GI50's (VCaP cells; GI50 of the top compound in the pair divided by GI50 of the lower compound): 1
- GI50 (VCaP cells; Homo sapiens, VCaP, 72 h, CellTiter-Glo 2.0): < 500 nM
